For six compounds, EC50 and T/C results are on record in ChEMBL document CHEMBL1158914, “Antitumor agents, 115. Seselidiol, a new cytotoxic polyacetylene from Seseli mairei” (1990).

≈ marks a conversion by molar mass, not a printed value.

What all share (type): functional
The test system of one assay is HCT-8. Put plainly: Cytotoxicity against human HCT8 cells. Particulars: read-out: ED50 (the source's name).
In assay [1] the test system is P388. Put plainly: Cytotoxicity against mouse P388 cells. The settings on record: read-out: ED50 (the source's name).
The next assay concerns L1210. Put plainly: Cytotoxicity against mouse L1210 cells. The settings on record: read-out: ED50 (the source's name).
The next assay concerns KB. Put plainly: Cytotoxicity against human KB cells. Particulars: read-out: ED50 (the source's name).
Assay [2] relates to P388. Put plainly: Antileukemic activity against mouse P388 cells xenografted in mouse at 3 mg/kg after 3 days relative to control.

Consider `C=CC(=O)C#CC#C/C=C\C(=O)CCCCCCC`, for which the EC50 is 3.7 µg/mL (≈ 14.4 µM) in the assay with HCT-8, over 10 µg/mL in the assay with P388 [1], over 10 µg/mL in the assay on L1210 and over 10 µg/mL in the assay on KB.
The T/C is the result in the treated group divided by that in the control group, in per cent. In the assay on P388 [2], `CCC[C@@H](O)/C=C/C=C/C=C/C#CC#CCCCO` [CICUTOXIN] had a T/C of 165%. Moreover, the EC50 with KB was 2 µg/mL (≈ 7.74 µM).
In the case of `COc1cccc2c1C(=O)c1c(O)c3c(c(O)c1C2=O)C[C@@](O)(C(=O)CO)C[C@@H]3O[C@H]1C[C@H](N)[C@H](O)[C@H](C)O1.Cl` [DOXORUBICIN HYDROCHLORIDE], in the assay with HCT-8, the EC50 came out at 0.3 µg/mL.
`COc1cc([C@@H]2c3cc4c(cc3[C@@H](O[C@@H]3O[C@@H]5CO[C@@H](C)O[C@H]5[C@H](O)[C@H]3O)[C@H]3COC(=O)[C@H]23)OCO4)cc(OC)c1O` [ETOPOSIDE]: the EC50 was 2.6 µg/mL (≈ 4.42 µM) in the assay on P388 [1], 1.6 µg/mL (≈ 2.72 µM) in the assay with L1210 and 0.1 µg/mL (≈ 0.17 µM) in the assay on KB.
On to `C=CC(C#CC#C/C=C\C(CCCCCCC)OC(C)=O)OC(C)=O` (stereo not drawn) [SESELIDIOL DIACETATE], for which the EC50 was 7.8 µg/mL with HCT-8, 5.2 µg/mL in the assay on P388 [1], 5.5 µg/mL in the assay with L1210 and 4 µg/mL with KB.
On to `C=CC(O)C#CC#C/C=C\C(O)CCCCCCC` (stereo not drawn) [SESELIDIOL], for which the EC50 with HCT-8 is 10 µg/mL (≈ 38.4 µM); with P388 [1], 4.9 µg/mL (≈ 18.8 µM); in the assay with L1210, 3.3 µg/mL (≈ 12.7 µM); in the assay with KB, 1 µg/mL (≈ 3.84 µM).
